Tests used:
Echinochloa crus-galli = assay: Test Example 2: herbicidal effects in farmland soil treatment; format: in vivo; set-up: scale not given here; conditions: 1000 g active ingredient per hectare, 21st day after treatment
Setaria viridis [1] = assay: as above; format: in vivo; set-up: scale not given here; conditions: 1000 g active ingredient per hectare, 21st day after treatment
[2] = system: Scirpus juncoides Roxb. var. ohwianus. T. Koyama; assay: Test Example 1: herbicidal effects in paddy field soil treatment; format: in vivo; set-up: scale not given here; conditions: 1000 g active ingredient per hectare, 21st day after treatment
Method: (§1) 100-cm^2 plastic pots were filled with paddy field soil. After puddling and leveling, seeds of Echinochloa oryzicola Vasing, Monochoria vaginalis (Burm. f.) Presl var. plantaginea (Roxb.) Solms-Laub., and Scirpus juncoides Roxb. var. ohwianus. T. Koyama were sowed in the pots, and the soil was waterlogged to a water depth of 3 cm. On the next day, a wettable powder formulation prepared according to Formulation Example 1 was diluted with water, and the dilution was added dropwise onto the water surface. The amount of application was an amount equivalent to 1000 g of the active ingredient per hectare. Thereafter, the plants were grown in a greenhouse, and on the 21st day after the treatment, the herbicidal effects were investigated according to the criteria described in Table 71.
(§2) In addition, comparative compound A, comparative compound B, comparative compound C, and comparative compound D in the tables represent Compound Nos. 70, 34, 32, and 31, respectively, as described in EP-283261. The structural formulas of these compounds are presented below.

[3] = system: Echinochloa oryzicola Vasing; assay: as above; format: in vivo; set-up: scale not given here; conditions: 1000 g active ingredient per hectare, 21st day after treatment
Method: as §1, §2

[4] = system: Monochoria vaginalis (Burm. f.) Presl var. plantaginea (Roxb.) Solms-Laub.; assay: as above; format: in vivo; set-up: scale not given here; conditions: 1000 g active ingredient per hectare, 21st day after treatment
Method: as §1, §2

[5] = system: Abutilon theophrasti medicus; assay: Test Example 2: herbicidal effects in farmland soil treatment; format: in vivo; set-up: scale not given here; conditions: 1000 g active ingredient per hectare, 21st day after treatment
Method: (§3) 80-cm^2 plastic pots were filled with farmland soil. Seeds of Abutilon theophrasti medicus and Amaranthus retroflexus were sowed in the pots, and soil was covered. A wettable powder formulation prepared according to Formulation Example 1 was diluted with water, and the dilution was uniformly sprayed on the soil surface with a small sprayer, in an amount equivalent to 1000 liters per hectare, such that 1000 g of the active ingredient was applied per hectare. Thereafter, the plants were grown in a greenhouse, and on the 21st day after the treatment, the herbicidal effects were investigated according to the criteria described in Table 71 shown above.

Amaranthus retroflexus [6] = assay: as above; format: in vivo; set-up: scale not given here; conditions: 1000 g active ingredient per hectare, 21st day after treatment
Method: as §3

Setaria viridis [7] = assay: Test Example 3: herbicidal effects in farmland foliar treatment; format: in vivo; set-up: scale not given here; conditions: 1000 g active ingredient per hectare, 14th day after treatment
[8] = system: Abutilon theophrasti medicus; assay: as above; format: in vivo; set-up: scale not given here; conditions: 1000 g active ingredient per hectare, 14th day after treatment
Method: (§4) 80-cm^2 plastic pots were filled with farmland soil. Seeds of Echinochloa crus-galli (L.) P. Beauv. var. crus-galli, Abutilon theophrasti medicus, and Amaranthus retroflexus were sowed in the pots, and the plants were grown for two weeks in a greenhouse. A wettable powder formulation prepared according to Formulation Example 1 was diluted with water, and the dilution was applied by foliar treatment by spraying with a small sprayer over the whole plant from the upper part, in an amount equivalent to 1000 liters per hectare, such that 1000 g of the active ingredient was applied per hectare. Thereafter, the plants were grown in a greenhouse, and on the 14th day after the treatment, the herbicidal effects were investigated according to the criteria described in Table 71 shown above.

[9] = system: Echinochloa crus-galli (L.) P. Beauv. var. crus-galli; assay: as above; format: in vivo; set-up: scale not given here; conditions: 1000 g active ingredient per hectare, 14th day after treatment
Method: as §4

Amaranthus retroflexus [10] = assay: as above; format: in vivo; set-up: scale not given here; conditions: 1000 g active ingredient per hectare, 14th day after treatment
Method: as §4

O=C1CCCC(O)=C1C(=O)c1cc2cccnc2n(Cc2ccccc2)c1=O [II-24, 1-benzyl-3-(2-hydroxy-6-oxo-1-cyclohexenecarbonyl)-1,8-naphthyridin-2(1H)-one]
5: Herbicidal effect index, Echinochloa crus-galli (Echinochloa crus-galli) | Herbicidal effect index, Scirpus juncoides [2] | Herbicidal effect index, Echinochloa oryzicola [3] | Herbicidal effect index, Monochoria vaginalis [4] | Herbicidal effect index, Abutilon thophrasti [5] | Herbicidal effect index, Amaranthus retroflexus (Amaranthus retroflexus [6])
3: Herbicidal effect index, Setaria viridis (Setaria viridis [1])
190 to 192 °C: melting point

Cc1cc(-n2c(=O)c(C(=O)C3=C(O)CCCC3=O)cc3cccnc32)no1 [II-63, 3-(2-hydroxy-6-oxo-1-cyclohexenecarbonyl)-1-(5-methyl-3-isoxazolyl)-1,8-naphthyridin-2(1H)-one]
4: Herbicidal effect index, Echinochloa crus-galli (Echinochloa crus-galli)
3: Herbicidal effect index, Setaria viridis (Setaria viridis [1])
5: Herbicidal effect index, Scirpus juncoides [2] | Herbicidal effect index, Echinochloa oryzicola [3] | Herbicidal effect index, Monochoria vaginalis [4] | Herbicidal effect index, Setaria viridis (Setaria viridis [7]) | Herbicidal effect index, Abutilon theoprasti [8] | Herbicidal effect index, Echinochloa crus-galli [9] | Herbicidal effect index, Amaranthus retroflexus (Amaranthus retroflexus [10]) | Herbicidal effect index, Abutilon thophrasti [5] | Herbicidal effect index, Amaranthus retroflexus (Amaranthus retroflexus [6])
113 to 116 °C: melting point

CCSCn1c(=O)c(C(=O)C2=C(O)CCCC2=O)cc2cccnc21 [II-19, 1-(ethylthiomethyl)-3-(2-hydroxy-6-oxo-1-cyclohexenecarbonyl)-1,8-naphthyridin-2(1H)-one]
5: Herbicidal effect index, Scirpus juncoides [2] | Herbicidal effect index, Echinochloa oryzicola [3] | Herbicidal effect index, Monochoria vaginalis [4] | Herbicidal effect index, Setaria viridis (Setaria viridis [7]) | Herbicidal effect index, Abutilon theoprasti [8] | Herbicidal effect index, Echinochloa crus-galli [9] | Herbicidal effect index, Amaranthus retroflexus (Amaranthus retroflexus [10]) | Herbicidal effect index, Abutilon thophrasti [5] | Herbicidal effect index, Amaranthus retroflexus (Amaranthus retroflexus [6])
4: Herbicidal effect index, Echinochloa crus-galli (Echinochloa crus-galli) | Herbicidal effect index, Setaria viridis (Setaria viridis [1])
108 to 110 °C: melting point

Cn1c(=O)c(C(=O)C2=C(O)CCCC2=O)cc2ccc(C(F)(F)Cl)nc21 [II-141]
3: Herbicidal effect index, Echinochloa crus-galli (Echinochloa crus-galli) | Herbicidal effect index, Echinochloa crus-galli [9] | Herbicidal effect index, Amaranthus retroflexus (Amaranthus retroflexus [6])
5: Herbicidal effect index, Scirpus juncoides [2] | Herbicidal effect index, Echinochloa oryzicola [3] | Herbicidal effect index, Monochoria vaginalis [4] | Herbicidal effect index, Abutilon theoprasti [8] | Herbicidal effect index, Abutilon thophrasti [5]
4: Herbicidal effect index, Setaria viridis (Setaria viridis [1]) | Herbicidal effect index, Setaria viridis (Setaria viridis [7]) | Herbicidal effect index, Amaranthus retroflexus (Amaranthus retroflexus [10])

Cn1c(=O)c(C(=O)C2=C(O)CCCC2=O)cc2ccccc21 [I-2, 3-(2-hydroxy-6-oxo-1-cyclohexenecarbonyl)-1-methylquinolin-2(1H)-one]
5: Herbicidal effect index, Scirpus juncoides [2] | Herbicidal effect index, Echinochloa oryzicola [3] | Herbicidal effect index, Monochoria vaginalis [4]
179 to 181 °C: melting point

CC1(C)CCC(=O)C(C(=O)c2cnc3ccccc3n2)=C1O [Comparative compound D, reference compound]
2: Herbicidal effect index, Echinochloa crus-galli (Echinochloa crus-galli) | Herbicidal effect index, Scirpus juncoides [2]
0: Herbicidal effect index, Setaria viridis (Setaria viridis [1]) | Herbicidal effect index, Setaria viridis (Setaria viridis [7]) | Herbicidal effect index, Echinochloa crus-galli [9] | Herbicidal effect index, Abutilon thophrasti [5]
3: Herbicidal effect index, Amaranthus retroflexus (Amaranthus retroflexus [6])
4: Herbicidal effect index, Monochoria vaginalis [4] | Herbicidal effect index, Abutilon theoprasti [8]
1: Herbicidal effect index, Echinochloa oryzicola [3] | Herbicidal effect index, Amaranthus retroflexus (Amaranthus retroflexus [10])

CC(C)c1ccc2cc(C(=O)C3=C(O)CCCC3=O)c(=O)n(-c3ccccc3)c2n1 [II-128]
4: Herbicidal effect index, Abutilon thophrasti [5]
5: Herbicidal effect index, Echinochloa crus-galli (Echinochloa crus-galli) | Herbicidal effect index, Setaria viridis (Setaria viridis [1]) | Herbicidal effect index, Scirpus juncoides [2] | Herbicidal effect index, Echinochloa oryzicola [3] | Herbicidal effect index, Monochoria vaginalis [4] | Herbicidal effect index, Setaria viridis (Setaria viridis [7]) | Herbicidal effect index, Abutilon theoprasti [8] | Herbicidal effect index, Echinochloa crus-galli [9] | Herbicidal effect index, Amaranthus retroflexus (Amaranthus retroflexus [10]) | Herbicidal effect index, Amaranthus retroflexus (Amaranthus retroflexus [6])

COc1ccccc1Cn1c(=O)c(C(=O)C2=C(O)CCCC2=O)cc2cccnc21 [II-37, 3-(2-hydroxy-6-oxo-1-cyclohexenecarbonyl)-1-(2-methoxybenzyl)-1,8-naphthyridin-2(1H)-one]
5: Herbicidal effect index, Scirpus juncoides [2] | Herbicidal effect index, Echinochloa oryzicola [3] | Herbicidal effect index, Monochoria vaginalis [4]
147 to 150 °C: melting point

O=C1CCCC(O)=C1C(=O)c1cc2cccnc2n(-c2cccc(C(F)(F)F)c2)c1=O [II-52]
5: Herbicidal effect index, Echinochloa crus-galli (Echinochloa crus-galli) | Herbicidal effect index, Setaria viridis (Setaria viridis [1]) | Herbicidal effect index, Scirpus juncoides [2] | Herbicidal effect index, Echinochloa oryzicola [3] | Herbicidal effect index, Monochoria vaginalis [4] | Herbicidal effect index, Setaria viridis (Setaria viridis [7]) | Herbicidal effect index, Abutilon theoprasti [8] | Herbicidal effect index, Echinochloa crus-galli [9] | Herbicidal effect index, Amaranthus retroflexus (Amaranthus retroflexus [10]) | Herbicidal effect index, Abutilon thophrasti [5] | Herbicidal effect index, Amaranthus retroflexus (Amaranthus retroflexus [6])

COc1ccccc1-n1c(=O)c(C(=O)C2=C(O)CCCC2=O)cc2cccnc21 [II-54]
5: Herbicidal effect index, Echinochloa crus-galli (Echinochloa crus-galli) | Herbicidal effect index, Setaria viridis (Setaria viridis [1]) | Herbicidal effect index, Scirpus juncoides [2] | Herbicidal effect index, Echinochloa oryzicola [3] | Herbicidal effect index, Monochoria vaginalis [4] | Herbicidal effect index, Setaria viridis (Setaria viridis [7]) | Herbicidal effect index, Abutilon theoprasti [8] | Herbicidal effect index, Echinochloa crus-galli [9] | Herbicidal effect index, Amaranthus retroflexus (Amaranthus retroflexus [10]) | Herbicidal effect index, Abutilon thophrasti [5] | Herbicidal effect index, Amaranthus retroflexus (Amaranthus retroflexus [6])

Reference: US8334236B2, “Ring-fused 2-pyridone derivatives and herbicides” (Kumiai Chemical Industry Co., Ltd., priority 2009, dated 2012)
